Usually Ki stands for a measure of affinity in units of concentration, obtained from inhibition or displacement. The low end stands for higher affinity, the high end for lower affinity.

Consider 13 compounds from patent US9328138B2 (priority 2011, dated 2016).

Assay [1] deals with T1, HCV genotype 1b (BK) NS3 modified enzyme with a R155K mutation (Hepatitis C virus genotype 1b, UniProt P26663, R1181K).
T1 construct: HCV genotype 1b (BK) NS3 modified enzyme
Briefly: HCV NS3 protease time-resolved fluorescence (TRF) assay, genotype 1b R155K. In kind it is biochemical. As to conditions: Ki 1b R155K. Summed up: (§1)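 Steps: compound plus NS3/NS4A enzyme for 10 minutes; add peptide substrate to 25 nM; let cleavage proceed 6 hours at room temperature; read product fluorescence (340 nm excitation, 615 nm emission, delayed 400 μs). Enzyme levels gave signal/background 5-20.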

Assay [2] has as its target HCV NS3 protease genotype 3a (3A-1) (Hepatitis C virus genotype 3a, UniProt Q81258). Briefly: HCV NS3 protease time-resolved fluorescence (TRF) assay, genotype 3a. As to conditions: Ki 3a. The assay is classed as biochemical. Summed up: as §1
Setting [3] is: genotype 1b (BK) NS3 R155K, single value.
Where [4] appears, read: first of two values printed in the cell (not explained).
Where [5] appears, read: second of two values printed in the cell (not explained).

Turning to `C=C[C@@H]1C[C@]1(NC(=O)[C@@H]1C[C@@H]2CN1C(=O)[C@H](C(C)(C)C)NC(=O)O[C@@H]1C[C@H]1CCCCCc1c(nc3ccccc3c1OCCc1cccnc1)O2)C(=O)NS(=O)(=O)C1(C)CC1` [Example 218, (1aR,5S,8S,10R,22aR)-5-tert-butyl-N-[(1R,2S)-2-ethenyl-1-{[(1-methylcyclopropyl)sulfonyl]carbamoyl}cyclopropyl]-3,6-dioxo-17-[2-(pyridin-3-yl)ethoxy]-1,1a,3,4,5,6,9,10,18,19,20,21,22,22a-tetradecahydro-8H-7,10-methanocyclopropa[18,19][1,10,3,6] dioxadiazacyclononadecino[11,12-b]quinoline-8-carboxamide], the figures for the Ki in assay [1] (setting [3]) and in assay [2] were 35 pM and 2600 pM, respectively.
Consider `C=C[C@@H]1C[C@]1(NC(=O)[C@@H]1C[C@@H]2CN1C(=O)[C@H](C1CCCCC1)NC(=O)O[C@@H]1C[C@H]1CCCCCc1c(nc3ccccc3c1OC1CC3COCC(C1)N3)O2)C(=O)NS(=O)(=O)C1(C)CC1` (stereo partly drawn) [Example 288, (1aR,5S,8S,10R,22aR)-5-cyclohexyl-N-[(1R,2S)-2-ethenyl-1-{[(1-methylcyclopropyl)sulfonyl]carbamoyl}cyclopropyl]-17-(3-oxa-9-azabicyclo[3.3.1]non-7-yloxy)-3,6-dioxo-1,1a,3,4,5,6,9,10,18,19,20,21,22,22a-tetradecahydro-8H-7,10-methanocyclopropa[18,19][1,10,3,6]dioxadiazacyclononadecino[11,12-b]quinoline-8-carboxamide], for which the values for the inhibition constant Ki in assay [1] (setting [4]), in assay [1] (setting [5]) and in assay [2] were 18 pM, 50 pM and 224 pM, respectively.
Take `C=C[C@@H]1C[C@]1(NC(=O)[C@@H]1C[C@@H]2CN1C(=O)[C@H](C(C)(C)C)NC(=O)O[C@@H]1C[C@H]1CCCCCc1c(nc3ccccc3c1OCCCNC1CCCC1)O2)C(=O)NS(=O)(=O)C1(C)CC1` [Example 182, (1aR,5S,8S,10R,22aR)-5-tert-butyl-17-[3-(cyclopentylamino)propoxy]-N-[(1R,2S)-2-ethenyl-1-{[(1-methylcyclopropyl)sulfonyl]carbamoyl}cyclopropyl]-3,6-dioxo-1,1a,3,4,5,6,9,10, 18,19,20,21,22,22a-tetradecahydro-8H-7,10-methanocyclopropa[18,19][1,10,3,6] dioxadiazacyclononadecino[11,12-b] quinoline-8-carboxamide]: the Ki was 64 pM in assay [1] (setting [3]) and 610 pM in assay [2].
The like results for `C=C[C@@H]1C[C@]1(NC(=O)[C@@H]1C[C@@H]2CN1C(=O)[C@H](C(C)(C)C)NC(=O)O[C@@H]1CCC[C@H]1CC/C=C/Cc1c(nc3ccccc3c1OCCCO)O2)C(=O)NS(=O)(=O)C1(C)CC1` [Example 71, (3aR,7S,10S,12R,21E,24aS)-7-tert-butyl-N-[(1R,2S)-2-ethenyl-1-{[(1-methylcyclopropyl)sulfonyl]carbamoyl}cyclopropyl]-19-(3-hydroxypropoxy)-5,8-dioxo-1,2,3,3a,5,6,7,8,11,12,20,23,24,24a-tetradecahydro-10H-9,12-methanocyclopenta[18,19][1,10,3,6]dioxadiazacyclononadecino[11,12-b]quinoline-10-carboxamide] were, in that order, under 16 pM and 420 pM.
`C=C[C@@H]1C[C@]1(NC(=O)[C@@H]1C[C@@H]2CN1C(=O)[C@H](C1CCCCC1)NC(=O)O[C@@H]1C[C@H]1CCCCCc1c(nc3ccccc3c1OC1CC3CCC(C1)N3)O2)C(=O)NS(=O)(=O)C1(C)CC1` (stereo partly drawn) [Example 283, potassium {[(1R,2S)-1-({[(1aR,5S,8S,10R,22aR)-17-(8-azabicyclo[3.2.1]oct-3-yloxy)-5-cyclohexyl-3,6-dioxo-1,1a,3,4,5,6,9,10,18,19,20,21,22,22a-tetradecahydro-8H-7,10-methanocyclopropa[18,19][1,10,3,6]dioxadiazacyclononadecino[11,12-b]quinolin-8-yl]carbonyl}amino)-2-ethenylcyclopropyl]carbonyl}[(1-methylcyclopropyl)sulfonyl]azanide]: the figures for the inhibitory constant (Ki) in assay [1] (setting [4]), in assay [1] (setting [5]) and in assay [2] were 14 pM, 22 pM and 108 pM, respectively.
As to `COc1c2c(nc3ccccc13)O[C@@H]1C[C@@H](C(=O)N[C@]3(C(=O)NS(=O)(=O)C4CC4)C[C@H]3C3CC3)N(C1)C(=O)[C@H](C1CCCC1)NC(=O)O[C@@H]1CCC[C@H]1CC/C=C/C2` [Example 13, (3aR,7S,10S,12R,21E,24aS)-7-cyclopentyl-N-[(1S,2R)-2-[(cyclopropylsulfonyl)carbamoyl]-1,1′-bi(cyclopropyl)-2-yl]-19-methoxy-5,8-dioxo-1,2,3,3a,5,6,7,8,11,12,20,23,24,24a-tetradecahydro-10H-9,12-methanocyclopenta[18,19][1,10,3,6] dioxadiazacyclononadecino[11,12-b]quinoline-10-carboxamide], the results for the inhibition constant Ki in assay [1] (setting [3]) and in assay [2] were 930 pM and 15000 pM, respectively.
As for `C=C[C@@H]1C[C@]1(NC(=O)[C@@H]1C[C@@H]2CN1C(=O)[C@H](C(C)(C)C)NC(=O)O[C@@H]1C[C@H]1CCCCCc1c(nc3ccccc3c1OCCCNCCCCc1ccccc1)O2)C(=O)NS(=O)(=O)C1(C)CC1` [Example 198, (1aR,5S,8S,10R,22aR)-5-tert-butyl-N-[(1R,2S)-2-ethenyl-1-{[(1-methylcyclopropyl)sulfonyl]carbamoyl}cylcopropoyl]-3,6-dioxo-17-{3-[(4-phenylbutyl)amino]propoxy}-1,1a,3,4,5,6,9,10,18,19,20,21,22,22a-tetra decahydro-8H-7,10-methanocyclopropa[18,19][1,10,3,6] dioxadiazacyclononadecino[11,12-b] quinoline-8-carboxamide], the inhibition constant (Ki) is 50 pM in assay [1] (setting [3]) and 770 pM in assay [2].
Turning to `C=C[C@@H]1C[C@]1(NC(=O)[C@@H]1C[C@@H]2CN1C(=O)[C@H](C(C)(C)C)NC(=O)O[C@@H]1C[C@H]1CCCCCc1c(nc3ccccc3c1OC1CC3CCC(C1)N3CC)O2)C(=O)NS(=O)(=O)C1(C)CC1` (single isomer, unassigned) [Example 281], the Ki in assay [1] (setting [4]) turned out to be 16 pM; in assay [1] (setting [5]), 125 pM; in assay [2], 1240 pM.
Consider `COc1c2c(nc3ccccc13)O[C@@H]1C[C@H]3C(=O)N[C@]4(C(=O)NS(=O)(=O)C5(C)CC5)C[C@H]4/C=C\CCCCC[C@H](NC(=O)O[C@@H]4C[C@H]4CCC/C=C/2)C(=O)N3C1` [Example 300, (1aR,5S,11Z,12aS,13aR,16S,19R,27E,31aR)-26-methoxy-N-[(1-methylcyclopropyl)sulfonyl]-3,15,33-trioxo-1,1a,3,4,5,6,7,8,9,10,12a,13,15,16,18,19,29,30,31,31a-icosahydro-5,17:16,19-dimethanodicyclopropa[12,13:28,29][1,20,3,14,17]dioxatriazacyclononacosino[21,22-b]quinoline-13a(14H)-carboxamide], for which the Ki in assay [1] (setting [3]) amounted to 230 pM; in assay [2], 7100 pM.
As for `C=C[C@@H]1CC1(NC(=O)[C@@H]1C[C@@H]2CN1C(=O)[C@H](C(C)(C)C)NC(=O)O[C@@H]1C[C@H]1CCCCCc1c(nc3ccccc3c1CN1CCOCC1)O2)C(=O)NS(=O)(=O)C1(C)CC1` (stereo partly drawn) [Example 248, potassium {[(1R,2S)-1-({[(1aR,5S,8S,10R,22aR)-5-tert-butyl-17-(morpholin-4-ylmethyl)-3,6-dioxo-1,1a,3,4,5,6,9,10,18,19,20,21,22,22a-tetradecahydro-8H-7,10-methanocyclopropa[18,19][1,10,3,6]dioxadiazacyclononadecino[11,12-b]quinolin-8-yl]carbonyl}amino)-2-ethenylcyclopropyl]carbonyl}[(1-methylcyclopropyl)sulfonyl]azanide], the Ki in assay [1] (setting [4]) stood at 100 pM; in assay [1] (setting [5]), 348 pM; in assay [2], 40200 pM.
For `C=C[C@@H]1C[C@]1(NC(=O)[C@@H]1C[C@@H]2CN1C(=O)[C@H](C1CCCC1)NC(=O)O[C@@]1(C)C[C@@H]1CC/C=C/Cc1c(nc3ccccc3c1O)O2)C(=O)NS(=O)(=O)C1CC1` [Example 20, (1aS,5S,8S,10R,19E,22aS)-5-cyclopentyl-N-{(1R,2S)-1-[(cyclopropylsulfonyl)carbamoyl]-2-ethenylcyclopropyl}-17-hydroxy-1a-methyl-3,6-dioxo-1,1a,3,4,5,6,9,10,18,21,22,22a-dodecahydro-8H-7,10-methanocyclopropa[18,19][1,10,3,6]dioxadiazacyclononadecino[11,12-b]quinoline-8-carboxamide], the Ki in assay [1] (setting [3]) worked out at 550 pM; in assay [2] it was 22000 pM.
As to `C=C[C@@H]1C[C@]1(NC(=O)[C@@H]1C[C@@H]2CN1C(=O)[C@H](C1CCCCC1)NC(=O)O[C@@H]1C[C@H]1CCCCCc1c(nc3ccccc3c1OC1CCN(C)CC1)O2)C(=O)NS(=O)(=O)C1(C)CC1` [Example 211, (1aR,5S,8S,10R,22aR)-5-cyclohexyl-N-[(1R,2S)-2-ethenyl-1-{[(1-methylcyclopropyl)sulfonyl]carbamoyl}cyclopropyl]-17-[(1-methylpiperidin-4-yl)oxy]-3,6-dioxo-1,1a,3,4,5,6,9,10,18,19,20,21,22,22a-tetradecahydro-8H-7,10-methanocyclopropa[18,19][1,10,3,6] dioxadiazacyclononadecino[11,12-b]quinoline-8-carboxamide], the values for the Ki in assay [1] (setting [3]) and in assay [2] were 33 pM and 300 pM, respectively.
With `C=C[C@@H]1C[C@]1(NC(=O)[C@@H]1C[C@@H]2CN1C(=O)[C@H](C(C)(C)C)NC(=O)O[C@@H]1C[C@H]1CCCCCc1c(nc3ccccc3c1OC1C3COCC1CN(C(=O)OC(C)(C)C)C3)O2)C(=O)NS(=O)(=O)C1(C)CC1` (single isomer, unassigned) [Example 255], the Ki in assay [1] (setting [4]) is 120 pM; in assay [1] (setting [5]), 2210 pM; in assay [2], 59100 pM.
